Measured values reported in patent publication US20250221410A1, “SUBSTITUTED 2-C-AZINES AND SALTS THEREOF, AND USE THEREOF AS HERBICIDAL ACTIVE SUBSTANCES” (BAYER AKTIENGESELLSCHAFT, priority 2022, published 2025).

Key:
Format in all cases: in vivo
[1] = test system: AMARE: Amaranthus retroflexus; experiment: Pre-emergence herbicide efficacy at 80 g/ha, AMARE; details: scored visually after about 3 weeks
Excerpt: (§1) Seeds of monocotyledonous and dicotyledonous weed plants and crop plants were placed in plastic or organic planting pots and covered with soil. The compounds of the invention, formulated in the form of wettable powders (WP) or as emulsion concentrates (EC), were then applied to the surface of the covering soil as aqueous suspension or emulsion with addition of 0.5% additive at a water application rate equivalent to 600 l/ha. After the treatment, the pots were placed in a greenhouse and kept under good growth conditions for the test plants. After about 3 weeks, the efficacy of the preparations was scored visually in comparison with untreated controls as percentages. For example, 100% activity=the plants have died, 0% activity=like control plants. Tables D1 to D12 below show the effects of selected compounds of the general formula (I) according to Table 1 on various harmful plants and an application rate corresponding to 80 g/ha, which were obtained by the experimental procedure mentioned above.

[2] = test system: AMARE: Amaranthus retroflexus; experiment: Post-emergence herbicidal efficacy at 80 g/ha, AMARE; details: visual rating about 3 weeks after treatment vs untreated controls
Procedure: (§2) Seeds of monocotyledonous and dicotyledonous weeds and crop plants were placed in sandy loam in plastic or organic planting pots, covered with soil and cultivated in a greenhouse under controlled growth conditions. 2 to 3 weeks after sowing, the test plants were treated at the one-leaf stage. The compounds of the invention, formulated in the form of wettable powders (WP) or as emulsion concentrates (EC), were then sprayed onto the green parts of the plants as aqueous suspension or emulsion with addition of 0.5% additive at a water application rate of 600 l/ha (converted). After the test plants had been kept in the greenhouse under optimum growth conditions for about 3 weeks, the activity of the preparations was rated visually in comparison to untreated controls. For example, 100% activity=the plants have died, 0% activity=like control plants. Tables B1 to B10 below show the effects of selected compounds of the general formula (I) according to Table 1 on various harmful plants and an application rate corresponding to 80 g/ha, which were obtained by the experimental procedure mentioned above.

VERPE: Veronica persica [3] = experiment: Post-emergence herbicidal efficacy at 80 g/ha, VERPE; details: visual rating about 3 weeks after treatment vs untreated controls
Procedure: as §2

[4] = test system: ABUTH: Abutilon theophrasti; experiment: Pre-emergence herbicide efficacy at 1280 g/ha, ABUTH; details: visual scoring after about 3 weeks vs untreated controls
Summary of the method: (§3)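 Seeds sown in sandy loam in pots and covered; compounds as WP or EC applied to covering soil surface as aqueous suspension/emulsion with 0.5% additive at 600 L/ha water. Greenhouse growth ~3 weeks, then visual % efficacy vs untreated controls (100% = plants dead, 0% = like control).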

STEME: Stellaria media [5] = experiment: Pre-emergence herbicide efficacy at 1280 g/ha, STEME; details: visual scoring vs untreated controls
Summary of the method: as §3

VERPE: Veronica persica [6] = experiment: Pre-emergence herbicide efficacy at 1280 g/ha, VERPE; details: visual scoring vs untreated controls
Summary of the method: as §3

[7] = test system: DIGSA: Digitaria sanguinalis; experiment: Pre-emergence herbicide efficacy at 1280 g/ha, DIGSA; details: visual scoring after about 3 weeks vs untreated controls
Summary of the method: as §3

[8] = test system: DIGSA: Digitaria sanguinalis; experiment: Post-emergence herbicidal efficacy at 1280 g/ha, DIGSA; details: rated visually after about 3 weeks vs untreated controls, 100% = plants have died, 0% = like control plants
Summary of the method: (§4)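 Weeds grown in sandy loam in the greenhouse were sprayed at the one-leaf stage, 2 to 3 weeks after sowing, with WP or EC formulations in water plus 0.5% additive at 600 L/ha. Damage was scored visually about 3 weeks later against untreated controls (0% = like control, 100% = plants dead).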

KCHSC: Kochia scoparia [9] = experiment: Post-emergence herbicidal efficacy at 1280 g/ha, KCHSC; details: visual rating about 3 weeks after treatment vs untreated controls
Summary of the method: as §4

[10] = test system: AMARE: Amaranthus retroflexus; experiment: Pre-emergence herbicide efficacy at 1280 g/ha, AMARE; details: visual scoring after about 3 weeks vs untreated controls
Summary of the method: as §3

[11] = test system: ABUTH: Abutilon theophrasti; experiment: Post-emergence herbicidal efficacy at 1280 g/ha, ABUTH; details: rated visually after about 3 weeks vs untreated controls, 100% = plants have died, 0% = like control plants
Summary of the method: as §4

[12] = test system: ECHCG: Echinochloa crus-galli; experiment: Pre-emergence herbicide efficacy at 1280 g/ha, ECHCG; details: visual scoring after about 3 weeks vs untreated controls
Summary of the method: as §3

KCHSC: Kochia scoparia [13] = experiment: Pre-emergence herbicide efficacy at 1280 g/ha, KCHSC; details: visual scoring after about 3 weeks vs untreated controls
Summary of the method: as §3

SETVI: Setaria viridis [14] = experiment: Post-emergence herbicidal efficacy at 1280 g/ha, SETVI; details: visual rating about 3 weeks after treatment vs untreated controls
Summary of the method: as §4

VERPE: Veronica persica [15] = experiment: Post-emergence herbicidal efficacy at 1280 g/ha, VERPE; details: visual rating about 3 weeks after treatment vs untreated controls
Summary of the method: as §4

STEME: Stellaria media [16] = experiment: Post-emergence herbicidal efficacy at 1280 g/ha, STEME; details: visual rating about 3 weeks after treatment vs untreated controls
Summary of the method: as §4

POAAN: Poa annua [17] = experiment: Pre-emergence herbicide efficacy at 1280 g/ha, POAAN; details: visual scoring after about 3 weeks vs untreated controls
Summary of the method: as §3

SETVI: Setaria viridis [18] = experiment: Pre-emergence herbicide efficacy at 1280 g/ha, SETVI; details: visual scoring vs untreated controls
Summary of the method: as §3

[19] = test system: AMARE: Amaranthus retroflexus; experiment: Post-emergence herbicidal efficacy at 1280 g/ha, AMARE; details: rated visually after about 3 weeks vs untreated controls, 100% = plants have died, 0% = like control plants
Summary of the method: as §4

POAAN: Poa annua [20] = experiment: Post-emergence herbicidal efficacy at 1280 g/ha, POAAN; details: visual rating about 3 weeks after treatment vs untreated controls
Summary of the method: as §4

[21] = test system: MATIN: Matricaria inodora; experiment: Pre-emergence herbicide efficacy at 1280 g/ha, MATIN; details: visual scoring after about 3 weeks vs untreated controls
Excerpt: Seeds of mono- and dicotyledonous weed plants were placed in plastic pots in sandy loam soil (doubly sown with one species each of mono- or dicotyledonous weed plants per pot) and covered with soil. The compounds of the invention, formulated in the form of wettable powders (WP) or as emulsion concentrates (EC), were then applied to the surface of the covering soil as aqueous suspension or emulsion with addition of 0.5% additive at a water application rate of 600 litres per hectare (converted). After the treatment, the pots were placed in a greenhouse and kept under good growth conditions for the test plants. After about 3 weeks, the efficacy of the preparations was scored visually in comparison with untreated controls as percentages. For example, 100% activity=the plants have died, 0% activity=like control plants. Tables C1 to C12 below show the effects of selected compounds of the general formula (I) according to Table 1 on various harmful plants and at an application rate corresponding to 1280 g/ha, which were obtained by the trial procedure specified above.

[22] = test system: ECHCG: Echinochloa crus-galli; experiment: Post-emergence herbicidal efficacy at 1280 g/ha, ECHCG; details: rated visually after about 3 weeks vs untreated controls, 100% = plants have died, 0% = like control plants
Summary of the method: as §4

POLCO = experiment: Pre-emergence herbicide efficacy at 80 g/ha, POLCO; details: Polygonum convolvulus, scored visually after about 3 weeks
Excerpt: as §1

[23] = test system: DIGSA: Digitaria sanguinalis; experiment: Pre-emergence herbicide efficacy at 80 g/ha, DIGSA; details: scored visually after about 3 weeks
Excerpt: as §1

O=S(=O)(CCCC(F)(F)F)Oc1c(F)cccc1Cc1ncc(Cl)cn1 [Example 1-14]
Pre-emergence efficacy against AMARE in % [1]: 90%
Post-emergence efficacy against AMARE [2]: 95%
Post-emergence efficacy against VERPE (VERPE: Veronica persica [3]): 95%

Clc1ccc(Cc2ccccc2Oc2ncc(Cl)cn2)nc1 [Example 1-91]
Pre-emergence efficacy against ABUTH [4]: 100%
Pre-emergence efficacy against STEME in % (STEME: Stellaria media [5]): 100%
Pre-emergence efficacy against VERPE in % (VERPE: Veronica persica [6]): 100%
Pre-emergence efficacy against DIGSA [7]: 100%
Post-emergence efficacy at 1280 g/ha against DIGSA in % [8]: 90%
Post-emergence efficacy against KCHSC (KCHSC: Kochia scoparia [9]): 100%
Pre-emergence efficacy against AMARE [10]: 100%
Post-emergence efficacy at 1280 g/ha against ABUTH in % [11]: 100%
Pre-emergence efficacy against ECHCG [12]: 90%
Pre-emergence efficacy against KCHSC (KCHSC: Kochia scoparia [13]): 100%
Post-emergence efficacy against SETVI (SETVI: Setaria viridis [14]): 90%
Post-emergence efficacy against VERPE (VERPE: Veronica persica [15]): 100%
Post-emergence efficacy against STEME (STEME: Stellaria media [16]): 100%
Pre-emergence efficacy against POAAN (POAAN: Poa annua [17]): 100%
Pre-emergence efficacy against SETVI in % (SETVI: Setaria viridis [18]): 100%
Post-emergence efficacy at 1280 g/ha against AMARE in % [19]: 100%
Post-emergence efficacy against POAAN (POAAN: Poa annua [20]): 100%
Pre-emergence efficacy against MATIN [21]: 100%

Fc1ccc(Cc2ccccc2Oc2ncc(Cl)cn2)nc1 [Example 1-92]
Pre-emergence efficacy against ABUTH [4]: 100%
Pre-emergence efficacy against STEME in % (STEME: Stellaria media [5]): 100%
Pre-emergence efficacy against VERPE in % (VERPE: Veronica persica [6]): 100%
Pre-emergence efficacy against DIGSA [7]: 100%
Post-emergence efficacy at 1280 g/ha against DIGSA in % [8]: 90%
Post-emergence efficacy against KCHSC (KCHSC: Kochia scoparia [9]): 100%
Pre-emergence efficacy against AMARE [10]: 100%
Post-emergence efficacy at 1280 g/ha against ABUTH in % [11]: 90%
Pre-emergence efficacy against ECHCG [12]: 100%
Pre-emergence efficacy against KCHSC (KCHSC: Kochia scoparia [13]): 100%
Post-emergence efficacy against SETVI (SETVI: Setaria viridis [14]): 100%
Post-emergence efficacy against VERPE (VERPE: Veronica persica [15]): 100%
Post-emergence efficacy against STEME (STEME: Stellaria media [16]): 100%
Pre-emergence efficacy against POAAN (POAAN: Poa annua [17]): 100%
Pre-emergence efficacy against SETVI in % (SETVI: Setaria viridis [18]): 100%
Post-emergence efficacy at 1280 g/ha against AMARE in % [19]: 100%
Post-emergence efficacy against POAAN (POAAN: Poa annua [20]): 100%
Pre-emergence efficacy against MATIN [21]: 100%

Fc1ccc(Sc2ccccc2Cc2ncc(F)cn2)cc1 [Example 1-104]
Pre-emergence efficacy against ABUTH [4]: 100%
Pre-emergence efficacy against STEME in % (STEME: Stellaria media [5]): 100%
Pre-emergence efficacy against VERPE in % (VERPE: Veronica persica [6]): 100%
Pre-emergence efficacy against DIGSA [7]: 100%
Post-emergence efficacy at 1280 g/ha against DIGSA in % [8]: 100%
Post-emergence efficacy against KCHSC (KCHSC: Kochia scoparia [9]): 100%
Pre-emergence efficacy against AMARE [10]: 100%
Post-emergence efficacy at 1280 g/ha against ABUTH in % [11]: 100%
Pre-emergence efficacy against ECHCG [12]: 100%
Post-emergence efficacy at 1280 g/ha against ECHCG in % [22]: 100%
Post-emergence efficacy against SETVI (SETVI: Setaria viridis [14]): 90%
Post-emergence efficacy against VERPE (VERPE: Veronica persica [15]): 100%
Post-emergence efficacy against STEME (STEME: Stellaria media [16]): 100%
Pre-emergence efficacy against POAAN (POAAN: Poa annua [17]): 100%
Pre-emergence efficacy against SETVI in % (SETVI: Setaria viridis [18]): 100%
Post-emergence efficacy at 1280 g/ha against AMARE in % [19]: 100%
Post-emergence efficacy against POAAN (POAAN: Poa annua [20]): 100%
Pre-emergence efficacy against MATIN [21]: 100%

Fc1cnc(Cc2cccc(F)c2Oc2ncc(Cl)cn2)nc1 [Example 1-154]
Pre-emergence efficacy against AMARE in % [1]: 100%
Post-emergence efficacy against AMARE [2]: 90%
Pre-emergence efficacy against POLCO in % (POLCO): 80%

Fc1cnc(Cc2cccc(Cl)c2Oc2ncc(Cl)cn2)nc1 [Example 1-157]
Pre-emergence efficacy against AMARE in % [1]: 100%
Post-emergence efficacy against AMARE [2]: 80%
Pre-emergence efficacy against DIGSA in % [23]: 80%

Cc1cccc(Cc2ncc(F)cn2)c1Oc1ncc(F)cn1 [Example 1-162]
Pre-emergence efficacy against AMARE in % [1]: 90%
Pre-emergence efficacy against POLCO in % (POLCO): 80%

Cc1cccc(Cc2ncc(Cl)cn2)c1Oc1ncc(F)cn1 [Example 1-165]
Pre-emergence efficacy against DIGSA in % [23]: 80%
Pre-emergence efficacy against POLCO in % (POLCO): 80%

O=S(=O)(CCCC(F)(F)F)Oc1c(F)cccc1Cc1ncc(Br)cn1 [Example 1-186]
Post-emergence efficacy against AMARE [2]: 90%
Post-emergence efficacy against VERPE (VERPE: Veronica persica [3]): 90%

O=S(=O)(CCC(F)(F)F)Oc1c(F)cccc1Cc1ncc(Br)cn1 [Example 1-187]
Pre-emergence efficacy against AMARE in % [1]: 100%
Post-emergence efficacy against AMARE [2]: 90%
Post-emergence efficacy against VERPE (VERPE: Veronica persica [3]): 90%

Cc1cccc(Cc2ncc(Cl)cn2)c1OS(=O)(=O)CCC(F)(F)F [Example 1-189]
Pre-emergence efficacy against AMARE in % [1]: 80%
Post-emergence efficacy against VERPE (VERPE: Veronica persica [3]): 90%

O=S(=O)(CCCCl)Oc1c(F)cccc1Cc1ncc(Br)cn1 [Example 1-192]
Post-emergence efficacy against VERPE (VERPE: Veronica persica [3]): 80%

O=S(=O)(CCCCl)Oc1c(F)cccc1Cc1ncc(Cl)cn1 [Example 1-193]
Post-emergence efficacy against AMARE [2]: 90%
Post-emergence efficacy against VERPE (VERPE: Veronica persica [3]): 90%
